Test results taken from PubChem BioAssay (NCI).
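Tested at 5 concentrations; 48 h exposure; 96-well plates; endpoints linearly interpolated, else capped at highest concentration. GI50 is the concentration that inhibits growth by half. TGI: total growth inhibition.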

What was measured:
Assay in all cases: NCI anticancer screen, dose series, 48 h
TK-10 renal = test system: TK-10 renal
SK-MEL-2 melanoma = test system: SK-MEL-2 melanoma
SNB-75 CNS = test system: SNB-75 CNS
RXF 393 renal = test system: RXF 393 renal
HOP-92 NSCLC = test system: HOP-92 NSCLC
NCI-H226 lung = test system: NCI-H226 lung
SK-OV-3 ovarian = test system: SK-OV-3 ovarian
IGROV1 ovarian = test system: IGROV1 ovarian
NCI/ADR-RES ovarian = test system: NCI/ADR-RES ovarian
OVCAR-5 ovarian = test system: OVCAR-5 ovarian
T-47D breast = test system: T-47D breast
SR leukemia = test system: SR leukemia
MALME-3M melanoma = test system: MALME-3M melanoma
NCI-H522 lung = test system: NCI-H522 lung
CAKI-1 renal = test system: CAKI-1 renal
SF-539 CNS = test system: SF-539 CNS
MDA-MB-231 breast = test system: MDA-MB-231 breast
LOX IMVI melanoma = test system: LOX IMVI melanoma
RPMI-8226 leukemia = test system: RPMI-8226 leukemia
HCT-116 colon = test system: HCT-116 colon
SNB-19 CNS = test system: SNB-19 CNS
MCF7 breast = test system: MCF7 breast
U251 CNS = test system: U251 CNS
OVCAR-4 ovarian = test system: OVCAR-4 ovarian
COLO 205 colon = test system: COLO 205 colon
A498 renal = test system: A498 renal
OVCAR-3 ovarian = test system: OVCAR-3 ovarian
KM12 colon = test system: KM12 colon
SN12C renal = test system: SN12C renal
A549 NSCLC = test system: A549 NSCLC
PC-3 prostate = test system: PC-3 prostate
HT29 colon = test system: HT29 colon
UO-31 renal = test system: UO-31 renal
ACHN renal = test system: ACHN renal
K-562 leukemia = test system: K-562 leukemia
SW-620 colon = test system: SW-620 colon
NCI-H460 lung = test system: NCI-H460 lung
CCRF-CEM leukemia = test system: CCRF-CEM leukemia
786-0 renal = test system: 786-0 renal
BT-549 breast = test system: BT-549 breast
OVCAR-8 ovarian = test system: OVCAR-8 ovarian
SK-MEL-28 melanoma = test system: SK-MEL-28 melanoma
HL-60(TB) leukemia = test system: HL-60(TB) leukemia
NCI-H23 lung = test system: NCI-H23 lung
SF-268 CNS = test system: SF-268 CNS
UACC-257 melanoma = test system: UACC-257 melanoma
HCT-15 colon = test system: HCT-15 colon
HOP-62 NSCLC = test system: HOP-62 NSCLC
SK-MEL-5 melanoma = test system: SK-MEL-5 melanoma
HCC-2998 colon = test system: HCC-2998 colon
SF-295 CNS = test system: SF-295 CNS
HS 578T breast = test system: HS 578T breast
EKVX NSCLC = test system: EKVX NSCLC
UACC-62 melanoma = test system: UACC-62 melanoma
MOLT-4 leukemia = test system: MOLT-4 leukemia
DU-145 prostate = test system: DU-145 prostate
M14 melanoma = test system: M14 melanoma
MDA-MB-435 = test system: MDA-MB-435

Molecule `CCN1CCN(Cc2ccc(C(=O)Nc3nc4ccc(Oc5ccnc(C(=O)NC)c5)cc4s3)cc2C(F)(F)F)CC1` has a GI50 (TK-10 renal) of 2.65 µM, a TGI (TK-10 renal) of 6.83 µM and a GI50 (SK-MEL-2 melanoma) of 1.23 µM. It also gave a TGI (SK-MEL-2 melanoma) of 3.22 µM, a GI50 (SNB-75 CNS) of 4.05 µM and a TGI (SNB-75 CNS) of 20.8 µM. The GI50 (RXF 393 renal) was 1.48 µM, the TGI (RXF 393 renal) was 2.95 µM and the GI50 (HOP-92 NSCLC) was 1.01 µM. It also gave a TGI (HOP-92 NSCLC) of 7.26 µM, a GI50 (NCI-H226 lung) of 2.03 µM and a TGI (NCI-H226 lung) of over 100 µM. For the same molecule, the GI50 (SK-OV-3 ovarian) was 7.95 µM and the TGI (SK-OV-3 ovarian) was 32.2 µM.

`CC(=O)Nc1nc(C)c(-c2csc(Nc3ccccc3)n2)s1` showed a GI50 (IGROV1 ovarian) of 2.14 µM, a TGI (IGROV1 ovarian) of 7.72 µM and a GI50 (NCI/ADR-RES ovarian) of 5.16 µM. It also gave a TGI (NCI/ADR-RES ovarian) of 23.2 µM, a GI50 (OVCAR-5 ovarian) of 5.32 µM and a TGI (OVCAR-5 ovarian) of 20.6 µM. The GI50 (T-47D breast) was 1.21 µM, the TGI (T-47D breast) was 6.55 µM and the GI50 (SR leukemia) was 2.37 µM. The TGI (SR leukemia) was over 100 µM, the GI50 (MALME-3M melanoma) was 2.12 µM and the TGI (MALME-3M melanoma) was 11.7 µM. It also gave a GI50 (NCI-H522 lung) of 6.46 µM, a TGI (NCI-H522 lung) of 22.9 µM and a GI50 (CAKI-1 renal) of 4.15 µM. The TGI (CAKI-1 renal) was 16.1 µM, the GI50 (SF-539 CNS) was 4.07 µM and the TGI (SF-539 CNS) was 15.5 µM. For the same molecule, the GI50 (MDA-MB-231 breast) was 6.59 µM, the TGI (MDA-MB-231 breast) was 21.2 µM and the GI50 (LOX IMVI melanoma) was 3.97 µM. The TGI (LOX IMVI melanoma) was 17 µM, the GI50 (TK-10 renal) was 8.6 µM and the TGI (TK-10 renal) was 24 µM. For the same molecule, the GI50 (RPMI-8226 leukemia) was 3.57 µM, the TGI (RPMI-8226 leukemia) was 31.7 µM and the GI50 (HCT-116 colon) was 3.76 µM. For the same molecule, the TGI (HCT-116 colon) was 24.3 µM, the GI50 (SNB-19 CNS) was 8.09 µM and the TGI (SNB-19 CNS) was 20.6 µM. The GI50 (MCF7 breast) was 2.16 µM, the TGI (MCF7 breast) was 12 µM and the GI50 (U251 CNS) was 3.39 µM. The TGI (U251 CNS) was 20.8 µM, the GI50 (OVCAR-4 ovarian) was 6.5 µM and the TGI (OVCAR-4 ovarian) was 26.6 µM. The GI50 (COLO 205 colon) was 7.66 µM, the TGI (COLO 205 colon) was 26.8 µM and the GI50 (A498 renal) was 1.49 µM. It also gave a TGI (A498 renal) of 7.87 µM, a GI50 (OVCAR-3 ovarian) of 4.01 µM and a TGI (OVCAR-3 ovarian) of 15.7 µM. The GI50 (SK-MEL-2 melanoma) was 10.7 µM, the TGI (SK-MEL-2 melanoma) was 24.4 µM and the GI50 (KM12 colon) was 5.6 µM. For the same molecule, the TGI (KM12 colon) was 19.6 µM, the GI50 (SN12C renal) was 3.6 µM and the TGI (SN12C renal) was 16.3 µM. It also gave a GI50 (A549 NSCLC) of 6.39 µM, a TGI (A549 NSCLC) of 27 µM and a GI50 (PC-3 prostate) of 3 µM. For the same molecule, the TGI (PC-3 prostate) was 23.5 µM, the GI50 (HT29 colon) was 3.89 µM and the TGI (HT29 colon) was 21.8 µM. It also gave a GI50 (SNB-75 CNS) of 4.31 µM, a TGI (SNB-75 CNS) of 18.1 µM and a GI50 (UO-31 renal) of 2.55 µM. For the same molecule, the TGI (UO-31 renal) was 12.9 µM, the GI50 (ACHN renal) was 4.25 µM and the TGI (ACHN renal) was 15.9 µM. For the same molecule, the GI50 (K-562 leukemia) was 3.68 µM, the TGI (K-562 leukemia) was over 100 µM and the GI50 (SW-620 colon) was 9.82 µM. The TGI (SW-620 colon) was 23.1 µM, the GI50 (NCI-H460 lung) was 3.38 µM and the TGI (NCI-H460 lung) was 14.1 µM. It also gave a GI50 (HOP-92 NSCLC) of 1.57 µM, a TGI (HOP-92 NSCLC) of 8.28 µM and a GI50 (CCRF-CEM leukemia) of 4.11 µM. The TGI (CCRF-CEM leukemia) was 82 µM, the GI50 (NCI-H226 lung) was 3.12 µM and the TGI (NCI-H226 lung) was 15.4 µM. The GI50 (786-0 renal) was 3.25 µM, the TGI (786-0 renal) was 16.1 µM and the GI50 (BT-549 breast) was 2.06 µM. The TGI (BT-549 breast) was 8.76 µM, the GI50 (OVCAR-8 ovarian) was 6.81 µM and the TGI (OVCAR-8 ovarian) was 20.5 µM. For the same molecule, the GI50 (SK-MEL-28 melanoma) was 4.13 µM, the TGI (SK-MEL-28 melanoma) was 17.2 µM and the GI50 (HL-60(TB) leukemia) was 10.5 µM. For the same molecule, the TGI (HL-60(TB) leukemia) was 33.9 µM, the GI50 (NCI-H23 lung) was 4.96 µM and the TGI (NCI-H23 lung) was 20.7 µM. It also gave a GI50 (SF-268 CNS) of 5.4 µM, a TGI (SF-268 CNS) of 19.3 µM and a GI50 (UACC-257 melanoma) of 10.9 µM. For the same molecule, the TGI (UACC-257 melanoma) was 23.6 µM, the GI50 (HCT-15 colon) was 1.96 µM and the TGI (HCT-15 colon) was 13.5 µM. It also gave a GI50 (HOP-62 NSCLC) of 6.55 µM, a TGI (HOP-62 NSCLC) of 21.5 µM and a GI50 (SK-MEL-5 melanoma) of 4.31 µM. It also gave a TGI (SK-MEL-5 melanoma) of 16.2 µM, a GI50 (HCC-2998 colon) of 8.83 µM and a TGI (HCC-2998 colon) of 21.4 µM. For the same molecule, the GI50 (SF-295 CNS) was 2.32 µM, the TGI (SF-295 CNS) was 13 µM and the GI50 (HS 578T breast) was 2.35 µM. For the same molecule, the TGI (HS 578T breast) was 8.06 µM, the GI50 (EKVX NSCLC) was 2.94 µM and the TGI (EKVX NSCLC) was 13.6 µM. It also gave a GI50 (UACC-62 melanoma) of 2.34 µM, a TGI (UACC-62 melanoma) of 12.6 µM and a GI50 (MOLT-4 leukemia) of 3.92 µM. It also gave a TGI (MOLT-4 leukemia) of 28.6 µM, a GI50 (DU-145 prostate) of 5.23 µM and a TGI (DU-145 prostate) of 17.5 µM. The GI50 (M14 melanoma) was 3.55 µM, the TGI (M14 melanoma) was 16.4 µM and the GI50 (MDA-MB-435) was 6.07 µM. The TGI (MDA-MB-435) was 19.7 µM, the GI50 (SK-OV-3 ovarian) was 3.43 µM and the TGI (SK-OV-3 ovarian) was 42.8 µM.
